Source: US10196391B2 (Hoffmann-La Roche Inc., priority 2014, dated 2019)

Key:
HBV DNA = HBV DNA assay (real-time qPCR) in HepG2.2.15 cells; type: cell-based; settings: Hepatitis B virus, 144 h, extracellular HBV DNA, 6 days, read-out: IC50 (Anti HBV DNA production activity)
Experimental: HepG2.2.15 cells (Acs et al. Proc Natl Acad Sci USA, 84, (1987), 4641-4), a constitutively HBV-expressing cell line were cultured in DMEM+Glutamax-I medium (Invitrogen, Carlsbad, Calif., USA), supplemented with 10% fetal bovine serum (Invitrogen) and G418 (Invitrogen) at a final concentration of 200 mg/L and maintained in 5% CO2 at 37° C.
The assay employs real-time qPCR (TaqMan) to directly measure extracellular HBV DNA copy number. HepG2.2.15 cells were plated in 96-well microtiter plates. Only the interior wells were utilized to reduce “edge effects” observed during cell culture, the exterior wells were filled with complete medium to help minimize sample evaporation. On the following day, the HepG2.2.15 cells were washed and the medium was replaced with complete medium containing various concentrations of a test compound in triplicate. 3TC was used as the positive control, while media alone was added to cells as a negative control (virus control, VC). Three days later, the culture medium was replaced with fresh medium containing the appropriately diluted drug. Six days following the initial administration of the test compound, the cell culture supernatant was collected, treated with pronase and then used in a real-time qPCR/TaqMan assay to determine HBV DNA copy numbers. Antiviral activity was calculated from the reduction in HBV DNA levels (IC50). […]

HBsAg = HBsAg assay (CLIA) in HepG2.2.15 cells; type: cell-based, HBV; settings: Hepatitis B virus, HepG2.2.15, read-out: IC50 (HBsAg assay)
Summary of the method: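 HepG2.2.15 cells (1.5×10^4/well, duplicate) treated with three-fold compound dilutions, 1% DMSO final, DMSO as no-drug control. Secreted HBsAg in supernatant quantified semi-quantitatively by chemiluminescence immunoassay; IC50 is concentration reducing HBsAg 50% versus no-drug control.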

For CS(=O)(=O)c1ccc(N2CCc3nc(-c4ccccn4)nc(O)c3C2)cc1 [Example 80, 6-(4-methylsulfonylphenyl)-2-(2-pyridyl)-3,5,7,8-tetrahydropyrido-[4,3-d]pyrimidin-4-one], the IC50 (HBV DNA) was 0.16 µM and the IC50 (HBsAg) was 5.94 µM.

Work on c1cnc(-c2ncc3c(n2)CCN(c2nccs2)C3)nc1 [Example 119, 2-(2-pyrimidin-2-yl-7,8-dihydro-5H-pyrido[4,3-d]pyrimidin-6-yl)thiazole] yielded an IC50 (HBsAg) of 6.08 µM.

Compound COc1cc([N+](=O)[O-])ccc1N1CCc2nc(-c3ccccn3)ncc2C1 [Example 34, 6-(2-methoxy-4-nitro-phenyl)-2-(2-pyridyl)-7,8-dihydro-5H-pyrido[4,3-d]pyrimidine] has an IC50 (HBsAg) of 0.874 µM.

Compound CCOC(=O)c1ccc(N2CCc3nc(-c4ccccn4)ncc3C2)cc1 [Example 31, ethyl 4-[2-(2-pyridyl)-7,8-dihydro-5H-pyrido[4,3-d]pyrimidin-6-yl]benzoate] has an IC50 (HBsAg) of 16.9 µM.

Compound CS(=O)(=O)c1ccc(N2CCc3nc(-c4ccccn4)ccc3C2)cc1 [Example 89, 6-(4-methylsulfonylphenyl)-2-(2-pyridyl)-7,8-dihydro-5H-1,6-naphthyridine] has an IC50 (HBsAg) of 6.72 µM.

Work on COCCCOc1ccc(N2CCc3nc(-c4ccccn4)ncc3C2)cc1OC [Example 44, 6-[3-methoxy-4-(3-methoxypropoxy)phenyl]-2-(2-pyridyl)-7,8-dihydro-5H-pyrido[4,3-d]pyrimidine] yielded an IC50 (HBsAg) of 18.9 µM.

Work on c1ccc(COc2ccc(N3CCc4nc(-c5ccccn5)ncc4C3)cc2)cc1 [Example 46, 6-(4-benzyloxyphenyl)-2-(2-pyridyl)-7,8-dihydro-5H-pyrido[4,3-d]pyrimidine] yielded an IC50 (HBsAg) of 8.79 µM.

CS(=O)(=O)c1ccc(N2CCc3nc(-c4ccccn4)ncc3C2)cc1 [Example 1, 6-(4-methylsulfonylphenyl)-2-(2-pyridyl)-7,8-dihydro-5H-pyrido[4,3-d]pyrimidine] was tested, and the IC50 (HBsAg) was 4.24 µM.

With Fc1cc(Br)cc(N2CCc3nc(-c4ncccn4)ncc3C2)c1 [Example 41, 6-(3-bromo-5-fluoro-phenyl)-2-pyrimidin-2-yl-7,8-dihydro-5H-pyrido[4,3-d]pyrimidine] the IC50 (HBsAg) was 0.5 µM.

Fc1cc(N2CCc3nc(-c4ccccn4)ncc3C2)cc(F)c1OCc1ccccc1 [Example 64, 6-(4-benzyloxy-3,5-difluoro-phenyl)-2-(2-pyridyl)-7,8-dihydro-5H-pyrido[4,3-d]pyrimidine] showed an IC50 (HBsAg) of 1.82 µM.

In the case of O=[N+]([O-])c1ccccc1N1CCc2nc(-c3ccccn3)ncc2C1 [Example 33, 6-(2-nitrophenyl)-2-(2-pyridyl)-7,8-dihydro-5H-pyrido[4,3-d]pyrimidine], the IC50 (HBsAg) is reported as 0.39 µM.

In the case of COc1ccnc(N2CCc3nc(-c4ccccn4)ncc3C2)c1F [Example 70, 6-(3-fluoro-4-methoxy-2-pyridyl)-2-(2-pyridyl)-7,8-dihydro-5H-pyrido[4,3-d]pyrimidine], the IC50 (HBsAg) is reported as 1.55 µM.

Compound COc1cc(N2CCc3nc(-c4ccccn4)ncc3C2)ccc1C(=O)O [Example 65, 2-methoxy-4-[2-(2-pyridyl)-7,8-dihydro-5H-pyrido[4,3-d]pyrimidin-6-yl]benzoic acid] has an IC50 (HBsAg) of 18.4 µM.

With COc1cc(F)nc(N2CCc3nc(-c4ncccn4)ncc3C2)c1 [Example 99, 6-(6-fluoro-4-methoxy-2-pyridyl)-2-pyrimidin-2-yl-7,8-dihydro-5H-pyrido[4,3-d]pyrimidine] the IC50 (HBsAg) was 0.1 µM.

Fc1ccc(N2CCc3nc(-c4ccccn4)ncc3C2)c(F)c1 [Example 14, 6-(2,4-difluorophenyl)-2-(2-pyridyl)-7,8-dihydro-5H-pyrido[4,3-d]pyrimidine] was tested, and the IC50 (HBsAg) was 9.51 µM.

In the case of Cc1cccnc1-c1ncc2c(n1)CCN(c1ccc(S(C)(=O)=O)cc1)C2 [Example 4, 2-(3-methyl-2-pyridyl)-6-(4-methylsulfonylphenyl)-7,8-dihydro-5H-pyrido[4,3-d]pyrimidine], the IC50 (HBsAg) is reported as 17.8 µM.

CCOc1ccc(N2CCc3nc(-c4ccccn4)ncc3C2)cc1F [Example 54, 6-(4-ethoxy-3-fluoro-phenyl)-2-(2-pyridyl)-7,8-dihydro-5H-pyrido[4,3-d]pyrimidine] gave an IC50 (HBsAg) of 3.91 µM.

Work on COc1cc(Cl)cc(N2CCc3nc(-c4ncccn4)ncc3C2)n1 [Example 115, 6-(4-chloro-6-methoxy-2-pyridyl)-2-pyrimidin-2-yl-7,8-dihydro-5H-pyrido[4,3-d]pyrimidine] yielded an IC50 (HBsAg) of 0.352 µM.

COc1cc(N2CCc3nc(-c4ccccn4)ncc3C2)cc(F)c1F [Example 17, 6-(3,4-difluoro-5-methoxy-phenyl)-2-(2-pyridyl)-7,8-dihydro-5H-pyrido[4,3-d]pyrimidine] was tested, and the IC50 (HBsAg) was 0.154 µM.

Work on COC(=O)c1ccc(N2CCc3nc(-c4ccccn4)ncc3C2)cc1F [Example 15, methyl 2-fluoro-4-[2-(2-pyridyl)-7,8-dihydro-5H-pyrido[4,3-d]pyrimidin-6-yl]benzoate] yielded an IC50 (HBsAg) of 9.23 µM.

Work on Fc1cc(N2CCc3nc(-c4ncccn4)ncc3C2)cc(F)n1 [Example 109, 6-(2,6-difluoro-4-pyridyl)-2-pyrimidin-2-yl-7,8-dihydro-5H-pyrido[4,3-d]pyrimidine] yielded an IC50 (HBsAg) of 4.09 µM.

For COc1cc(N2CCc3nc(-c4ccncn4)ncc3C2)cc(F)c1F [Example 29, 6-(3,4-difluoro-5-methoxy-phenyl)-2-pyrimidin-4-yl-7,8-dihydro-5H-pyrido[4,3-d]pyrimidine], the IC50 (HBsAg) was 4.16 µM.

Fc1cc(OC(F)(F)F)cc(N2CCc3nc(-c4ncccn4)ncc3C2)c1 [Example 118, 6-[3-fluoro-5-(trifluoromethoxy)phenyl]-2-pyrimidin-2-yl-7,8-dihydro-5H-pyrido[4,3-d]pyrimidine] was tested, and the IC50 (HBsAg) was 4.98 µM.
